From US20100272675A1, “METHOD OF ADMINISTERING CONJUGATES” (ENDOCYTE, INC., priority 2007, published 2010)

How the values were obtained:
[1] = tested on: 4T1c2 cells (a breast tumor cell line); assay: Effect of ligand conjugates on tumor volume for mice with breast tumor implants; type: in vivo
Protocol: Two regimens were tested. In the first regimen, six to eight-week old (˜20-22 grams) female Balb/c mice were immunized with fluorescein isothiocyanate (FITC)-labeled keyhole limpet hemocyanin (KLH; see FIG. 5) at 35 μg/dose using a saponin adjuvant (e.g., GPI-0100; 100 μg/dose) at days 1, 15, and 29. On day 23, each animal was injected with 2.5×10^5 4T1c2 cells (a breast tumor cell line). Cancer loci were then allowed to grow. From days 42-60, all animals were injected daily ((qd×5)3; days 42-46, 49-53, and 56-60) with either phosphate buffered saline (PBS) or 500 nmol/kg of FITC-conjugated to folic acid via a gamma carboxyl-linked ethylene diamine bridge (see FIG. 4). The animals were injected on the same days with 20,000 U/dose of recombinant human IL-2. The animals were injected (TIW)3 with IL-2 in the same weeks as the animals were injected with folate-FITC.
In the second regimen, six to eight-week old (˜20-22 grams) female Balb/c mice were immunized with fluorescein isothiocyanate (FITC)-labeled keyhole limpet hemocyanin (KLH) at 35 μg/dose using a saponin adjuvant (e.g., GPI-0100; 100 μg/dose) at days 1, 15, and 29. On day 5, each animal was injected with 2.5×10^5 4T1c2 cells. Cancer loci were then allowed to grow. From days 8-50, all animals were injected daily ((qd×5)6) with either phosphate buffered saline (PBS) or 500 nmol/kg of FITC-conjugated to folic acid via a gamma carboxyl-linked ethylene diamine bridge. The animals were injected daily on days 32-50 with 20,000 U/dose of recombinant human IL-2. The animals were injected (TIW)3 with IL-2 in the same weeks as the animals were injected with folate-FITC.
The efficacy of this immunotherapy was then evaluated by monitoring tumor volume as a function of time for folate-FITC treated mice compared to control animals.

[2] = Active systemic anaphylaxis assay in guinea pigs immunized against EC90 plus GPI-0100 adjuvant; type: in vivo; conditions: guinea pigs immunized days 1, 8, 15 with EC90 plus 0.5 mg GPI-0100; de-sensitized days 8-12 and 15-19 with EC17 spiked with 10% (mole) Bis-FITC-eda; s.c. challenge day 22
Protocol: Male and female guinea pigs (1 per sex per group) were immunized three times, on Days 1, 8, and 15, with various doses of EC90 plus 0.5 mg GPI-0100. A single dose of test article (EC17+/− Bis-FITC-eda) was administered (s.c.) on Day 22. Guinea pigs were de-sensitized with multiple doses of EC 17 spiked with 10% (mole) Bis-FITC-eda on Days 8-12, and 15-19. On Day 22, these animals were s.c. challenged with the same EC17/Bis-FITC-eda formulation. Clinical observations were generally taken for 1.5-2 hours post challenge. […] Complete macroscopic postmortem examinations were performed on all animals (FIG. 9).

For `Nc1nc2ncc(CNc3ccc(C(=O)NC(CCC(=O)NCCNC(=S)Nc4ccc(-c5c6ccc(=O)cc-6oc6cc(O)ccc56)c(C(=O)O)c4)C(=O)O)cc3)nc2c(=O)[nH]1` (stereo not shown) [EC17], the “tumor volume as a function of time compared to control animals” value ([1]; Balb/c mice immunized with KLH-FITC 35 μg/dose + GPI-0100 100 μg/dose, folate-FITC 500 nmol/kg daily plus IL-2 20,000 U/dose, early or late dosing protocol) was “decreased”, the “effect on tumor volume, early dosing protocol” value ([1]; folate-FITC 500 nmol/kg daily (qd×5)6 from days 8-50, IL-2 20,000 U/dose days 32-50) was “effective in decreasing tumor volume” and the “tumor volume, early versus late dosing protocol” value ([1]; folate-FITC 500 nmol/kg, late: days 42-60, early: days 8-50, plus IL-2) was “similar”. For the same compound, the “allergenicity (signs of anaphylaxis after s.c. challenge), effect of early dosing” value [2] was “reduces allergenicity”.
